This is an account of results in patent EP2125859B1, “ESTRATRIENE DERIVATIVES AND THEIR USES AS 17BETA-HYDROXYSTEROID DEHYDROGENASE INHIBITORS” (Abbott Products GmbH, priority 2006, dated 2008).

The target of assay [1] is T1, recombinant human 17β-HSD1 (Homo sapiens, UniProt P14061).
T1 construct: made in house; host or cells: Sf9 insect cells (baculovirus, Bac to Bac Expression System)
T1 sequence (P14061 1-328): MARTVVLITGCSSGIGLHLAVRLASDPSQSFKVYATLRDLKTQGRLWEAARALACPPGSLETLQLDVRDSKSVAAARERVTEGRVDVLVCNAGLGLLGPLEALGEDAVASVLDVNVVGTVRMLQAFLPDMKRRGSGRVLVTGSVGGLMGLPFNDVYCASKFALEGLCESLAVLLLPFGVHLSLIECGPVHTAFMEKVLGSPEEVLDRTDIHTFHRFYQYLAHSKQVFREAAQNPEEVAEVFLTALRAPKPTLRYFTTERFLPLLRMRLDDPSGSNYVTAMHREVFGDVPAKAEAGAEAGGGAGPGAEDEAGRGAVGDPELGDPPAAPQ
Description: Inhibition of recombinant human 17β-HSD1 (HPLC assay, conversion of 3H-estrone to estradiol). The settings on record: 0.5 h, 30 nM 3H-estrone, 1 mM NADPH, 30 min at RT, read-out: inhibition of rec. 17β-HSD1; for inhibition at 0.1 µM: 100 nM inhibitor; for inhibition at 1 µM: 1 µM inhibitor. It counts as biochemical. The procedure: Inhibition of the 17β-hydroxysteroid dehydrogenase type 1 enzyme 17β-HSD1 purification: Recombinant baculovirus was generated by the "Bac to Bac Expression System" (Invitrogen). Recombinant bacmid was transfected to Sf9 insect cells using "Cellfectin Reagent" (Invitrogen). 60h later cells were harvested; the microsomal fraction was isolated as described by Puranen et al. (1994). Aliquots were stored frozen until determination of enzymatic activity.
Assay - Inhibition of recombinant human 17β-HSD1: Recombinant protein (0.1 µg/ml) was incubated in 20 mM KH2PO4 pH 7.4 with 30 nM 3H-estrone and 1 mM NADPH for 30 min at RT, in the presence of potential inhibitors at concentrations of 1 µM or 0.1 µM. Inhibitor stock solutions were prepared in DMSO. Final concentration of DMSO was adjusted to 1 % in all samples. The enzyme reaction was stopped by addition of 10 % trichloroacetic acid (final concentration). Samples were centrifuged in a microtiter plate at 4000 rpm for 10 min. Supernatants were applied to reverse phase HPLC on a Waters Symmetry C18 column, equipped with a Waters Sentry Guard column. Isocratic HPLC runs were performed at RT at a flow rate of 1 ml/min of acetonitrile:water 48:52 as running solvent. Radioactivity was monitored in the eluate by a Packard Flow Scintillation Analyzer. Total radioactivity for estrone and estradiol were determined in each sample and percent conversion of estrone to estradiol was calculated according to the following formula: [formula] [formula]
The values "% inhibition" were determined for exemplified compounds, and the results are summarized in table 4 (for 17β-HSD1). table 4: HSD 1 inhibition values in % of selected compounds of formula I

For a further assay, the target named is T2, 17β-HSD3 (Homo sapiens, UniProt P37058).
T2 construct: expressed in transfected cells; host or cells: MCF-7 cells stably expressing 17β-HSD3
T2 sequence (P37058 1-310): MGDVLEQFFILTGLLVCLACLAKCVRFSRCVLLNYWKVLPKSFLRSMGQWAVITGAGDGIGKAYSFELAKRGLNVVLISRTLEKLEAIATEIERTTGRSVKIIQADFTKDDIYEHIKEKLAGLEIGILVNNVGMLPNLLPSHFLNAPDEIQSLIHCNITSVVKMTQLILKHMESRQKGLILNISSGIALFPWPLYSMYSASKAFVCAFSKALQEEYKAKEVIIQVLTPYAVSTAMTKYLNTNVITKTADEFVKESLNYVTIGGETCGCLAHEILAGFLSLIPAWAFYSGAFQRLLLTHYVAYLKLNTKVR
As to the kind of experiment: Inhibition of 17β-HSD3 in MCF-7 cell lines stably expressing the enzyme (HPLC, tritium labeled androstenedione). The format is cell-based. To be noted: MCF7, MCF-7 cells expressing 17β-HSD3, androstenedione 2 nM. The procedure:
The compounds were screened in respect of 17β-HSD3 enzyme activity in vitro on established MCF-7 cell lines, each stably expressing the 17β-HSD3 enzyme. The interconversion of substrate by 17β-HSD3 and the 17β-HSD3 inhibiting activity of chemical compounds in these cell lines were detected by HPLC system.
Varying amounts of the test compounds were incubated in the growth medium of the 17β-HSD3 expressing cells together tritium labeled androstenedione (2 nM). The medium samples were removed after exact incubation time and the reaction is stopped by trichloroacetic acid (TCA). The samples were analyzed by HPLC-coupled flow scintillation analysis.
Conversion: The 17β-HSD3 inhibiting activity of an individual test compound was calculated by comparing the conversion of a control sample without any test compound (referred to as "Negative Control") to the (reduced) conversion of the test sample containing the particular compound to be tested (referred to as "Test Sample"). [formula]
Two concentrations of each compound were used. The number of the compound refers to the numbers indicated in the Experimental Section.
The values "% inhibition" were determined for exemplified compounds, and the results are summarized in table 5 (HSD 3). table 5: 17β-HSD3 inhibition values in % of selected compounds of formula I

Usually inhibition stands for the share of the control response that was lost under treatment. For the molecule `C[C@]12CC[C@@H]3c4ccc(O)cc4CC[C@H]3[C@@H]1[C@H](CCCc1cn(-c3ccc(F)cc3F)nn1)CC2(F)F` [Compound 302, 15-{3-[1-(2,4-difluorophenyl)-1H-1,2,3-triazol-4-yl]propyl}-17,17-difluoroestra-1(10),2,4-trien-3-ol], in assay [1], the inhibition at 0.1 µM was determined as 88% and the inhibition at 1 µM is 96%. For the same molecule, on 17β-HSD3, the inhibition at 1 µM came out at 13% and the inhibition at 10 µM was found to be 70%.

As to `C[C@]12CC[C@@H]3c4ccc(O)cc4CC[C@H]3[C@@H]1[C@@H](CCCn1cc(-c3cccc(O)c3)nn1)CC2=O` [Compound 22, 3-Hydroxy-15-[3-(4-m-hydroxyphenyl-[1,2,3]triazol-1-yl)-propyl]-13-methyl-6,7,8,9,11,12,13,14,15,16-decahydro-cyclopenta[a]phenanthren-17-one], in assay [1], the inhibition at 0.1 µM amounted to 48% and the inhibition at 1 µM worked out at 86%. Moreover, the inhibition at 1 µM against 17β-HSD3 amounted to 82%.

Consider `C[C@]12CC[C@@H]3c4ccc(O)cc4CC[C@H]3[C@@H]1[C@H](CCCn1cc(CCc3ccccc3)nn1)CC2=O` [Compound 8, 3-Hydroxy-15β-[3-(4-phenethyl-[1,2,3]triazol-1-yl)-propyl]-estra-1,3,5(10)-trien-17-one], for which, in assay [1], the inhibition at 0.1 µM stood at 81% and the inhibition at 1 µM was found to be 93%. For the same molecule, at 17β-HSD3, testing at 1 µM gave an inhibition of 6% and the inhibition at 10 µM came out at 61%.

Consider `CC(C)Cc1cn(CCC[C@@H]2CC(=O)[C@@]3(C)CC[C@@H]4c5ccc(O)cc5CC[C@H]4[C@H]23)nn1` [Compound 24, 3-Hydroxy-15β-[3-(4-iso-butyl-[1,2,3]triazol-1-yl)-propyl]-estra-1,3,5(10)-trien-17-one], for which, in assay [1], the inhibition at 0.1 µM is 52% and the inhibition at 1 µM was 85%. On 17β-HSD3, this molecule had an inhibition at 1 µM of 24% and an inhibition at 10 µM of 64%.

As for `C[C@]12CC[C@@H]3c4ccc(O)cc4CC[C@H]3[C@@H]1[C@H](CCn1cc(-c3ccccc3F)nn1)CC2=O` [Compound 7, 3-Hydroxy-15β-{2-[4-(2-fluoro-phenyl)-[1,2,3]triazol-1-yl]-ethyl}-estra-1,3,5(10)-trien-17-one], in assay [1], the inhibition at 0.1 µM turned out to be 81% and the inhibition at 1 µM turned out to be 94%. At 17β-HSD3, this molecule returned an inhibition at 1 µM of 12% and an inhibition at 10 µM of 36%.

As for `CCCCn1cc(CCCC2CC(=O)[C@@]3(C)CC[C@@H]4c5ccc(O)cc5CC[C@H]4[C@H]23)nn1` (stereo partly shown) [Compound 300, 15-[3-(1-butyl-1H-1,2,3-triazol-4-yl)propyl]-3-hydroxyestra-1(10),2,4-trien-17-one], in assay [1], the inhibition at 0.1 µM was 85% and the inhibition at 1 µM stood at 88%. Besides, at 17β-HSD3, testing at 1 µM gave an inhibition of 29% and the inhibition at 10 µM turned out to be 61%.

Take `C[C@]12CC[C@@H]3c4ccc(O)cc4CC[C@H]3[C@@H]1[C@H](CCn1cc(-c3ccccc3C(F)(F)F)nn1)CC2=O` [Compound 19, 3-Hydroxy-15β-{2-[4-(2-trifluoromethyl-phenyl)-[1,2,3]triazol-1-yl]-ethyl}-estra-1,3,5(10)-trien-17-one]: in assay [1], the inhibition at 0.1 µM worked out at 71% and the inhibition at 1 µM came to 87%. At 17β-HSD3, this molecule came in with an inhibition at 1 µM of 11% and an inhibition at 10 µM of 52%.

Regarding `CC(C)CCc1cn(CCC[C@@H]2CC(=O)[C@@]3(C)CC[C@@H]4c5ccc(O)cc5CC[C@H]4[C@H]23)nn1` [Compound 17, 3-Hydroxy-15β-{3-[4-(3-methyl-butyl)-[1,2,3]triazol-1-yl]-propyl}-estra-1,3,5(10)-trien-17-one], in assay [1], the inhibition at 0.1 µM was found to be 61% and the inhibition at 1 µM came to 88%. At 17β-HSD3, this molecule displayed an inhibition at 1 µM of 3% and an inhibition at 10 µM of 50%.

Regarding `C[C@]12CC[C@@H]3c4ccc(O)cc4CC[C@H]3[C@@H]1[C@H](CCCc1cn(-c3ccc(F)cc3F)nn1)CC2=O` [Compound 301, 15β-{3-[1-(2,4-difluorophenyl)-1H-1,2,3-triazol-4-yl]propyl}-3-hydroxyestra-1(10),2,4-trien-17-one], in assay [1], the inhibition at 0.1 µM stood at 82% and the inhibition at 1 µM stood at 88%. At 17β-HSD3, this molecule came in with an inhibition at 1 µM of 24% and an inhibition at 10 µM of 57%.

For `CC(C)Cc1cn(CC[C@@H]2CC(=O)[C@@]3(C)CC[C@@H]4c5ccc(O)cc5CC[C@H]4[C@H]23)nn1` [Compound 12, 3-Hydroxy-15β-[2-(4-iso-butyl-[1,2,3]triazol-1-yl)-ethyl]-estra-1,3,5(10)-trien-17-one], in assay [1], the inhibition at 0.1 µM stood at 86% and the inhibition at 1 µM is 92%. The same molecule had an inhibition at 10 µM against 17β-HSD3 of 37%.

For `C[C@]12CC[C@@H]3c4ccc(O)cc4CC[C@H]3[C@@H]1[C@H](CCn1cc(CC3CCCCC3)nn1)CC2=O` [Compound 6, 3-Hydroxy-15β-[2-(4-cyclohexylmethyl-[1,2,3]triazol-1-yl)-ethyl]-estra-1,3,5(10)-trien-17-one], in assay [1], the inhibition at 0.1 µM was 92% and the inhibition at 1 µM stood at 94%. At 17β-HSD3, this molecule came in with an inhibition at 1 µM of 16% and an inhibition at 10 µM of 50%.

In the case of `CC(C)CCc1cn(CC[C@@H]2CC(=O)[C@@]3(C)CC[C@@H]4c5ccc(O)cc5CC[C@H]4[C@H]23)nn1` [Compound 4, 3-Hydroxy-15β-{2-[4-(3-methyl-butyl)-[1,2,3]triazol-1-yl]-ethyl}-estra-1,3,5(10)-trien-17-one], in assay [1], the inhibition at 0.1 µM was found to be 92% and the inhibition at 1 µM came to 96%. Moreover, on 17β-HSD3, the inhibition at 1 µM amounted to 5% and the inhibition at 10 µM came to 40%.
